Reference: patent publication US10676467B2 (Washington University, priority 2017, dated 2020)
Where “and” joins values, the source holds several entries; their conditions need not be identical. Equal values may be shown once.

Experiments:
S1P1 [1] = molecular target: S1P1 (Mus musculus (Mouse), UniProt O08530); assay: In vitro autoradiography of [18F]22b in brain slices of LPS-treated mice, SEW2871 blocking; format: binding; conditions: brain sections of LPS-treated mice, ~6 nM tracer, 10 μM SEW2871, 60 min RT
Protocol: To confirm the binding specificity of [^18F]22b toward S1P1, in vitro autoradiography studies were performed using mouse brain slices that generated from LPS-induced murine neuroinflammation model, a widely used model for neuroinflammation, and the expression of S1P1 was activated in the mouse brain following the LPS injection according to the report (M. Kono, E. G. Conlon, S. Y. Lux, K. Yanagida, T. Hla, R. L. Proia, Bioluminescence imaging of G protein-coupled receptor activation in living mice, Nat. Commun. 8 (2017) 1163). Adult male C57BL/6 mice (20-25 g, Charles River Inc., Frederick, Md.) were used to generate LPS-induced neuroinflammation murine model. The mice (n=2) received an intraperitoneal injection of LPS from E. coli 055:65 (Sigma-Aldrich, St. Louis, Mo., USA) in saline (3 mg/mL) at dose of 15 mg/kg (5 mL/kg) and then euthanized at 24 h post-injection. Mouse brains were collected and cut into 20 μm sequential sections using a Microm cryotome and mounted on glass slides. […] The distribution of radioactivity was visualized by a Fuji Bio-Imaging Analyzer FLA-7000 (Fuji Photo Film, Tokyo, Japan). Photo-stimulated luminescence (PSL) from the brain slices was quantified using Multi Gauge v3.0 software (Fuji Photo Film Co., Tokyo, Japan). Data were background-corrected, and expressed as photo-stimulated luminescence signals per square millimeter (PSL/mm^2).

[2] = Ex vivo biodistribution in female Lewis rats; set-up: species or system rat
Text: Organs of blood, heart, lung, muscle, fat, pancreas, spleen, kidney, liver, thymus, brain, and bone were dissected and collected for counting. All the samples were counted with a dilution of the injectate on an automated well counter (Beckman Gamma 8000 well counter). Tissues were weighed and the uptake was reported as background and decay-corrected percent injected dose per gram (% ID/g).
The whole brains were quickly harvested and dissected into regions of cerebellum, brain stem, cortex, striatum, thalamus, and hippocampus, the remainder of the brain was also collected to determine the total brain uptake. Organs of blood, heart, lung, muscle, fat, pancreas, spleen, kidney, liver, thymus, and bone were also dissected and collected for counting. All the samples were counted with a dilution of the injectate on an automated well counter (Beckman Gamma 8000 well counter). Tissues were weighed and the uptake was reported as background and decay-corrected percent injected dose per gram (% ID/g).

S1P1 [3] = molecular target: S1P1 (Rattus norvegicus (Rat), UniProt P48303); assay: MicroPET and tracer kinetic modeling in EAE rat model, lumbar spinal cord; format: in vivo
Protocol: MicroPET scans were performed using an Inveon PET/CT system (Siemens Inc., Knoxville, Tenn.). […] Each rat was secured to a custom-designed acrylic bed equipped with a nosecone for gas anesthesia. PET/CT scans were conducted under 1.5-2% isoflurane anesthesia with the rat placed in transaxial position and centered with the T13 vertebral spine in the field of view. […] A list mode protocol was used with 60-min dynamic data acquisition.
PET image data was processed using filter back projection algorithm with attenuation and scatter corrections. The data were reconstructed per time frame employing an iterative reconstructional algorithm (three-dimensional ordered subset expectation maximization (3D-OSEM), maximum a posteriori (MAP)) and corrected for decay, random coincidences, scatter, and attenuation. […] Image data was analyzed using Inveon Research Workstation software IRW 4.2 (Siemens Inc., Knoxville, Tenn.). The regions of interest (ROI), the lumbar spinal cord and bilateral common carotid arteries, were drawn over the co-registered PET/CT images using the standard protocol published previously. Time-activity curves (TACs) were obtained and were expressed as % ID/g. A two-tailed t-test was used for the comparison of the tracer uptake in EAE rat lumbar spinal cord versus sham. A P value less than 0.05 was considered statistically significant. Time-activity curves were further analyzed using 2-tissue-compartment model (2TCM), as well as Logan graphical analysis, using the ROI over bilateral common carotid arteries for image-based arterial blood input function.

[4] = Ex vivo autoradiography of [18F]22b in rat brain; conditions: male SD rat, 60 min post-injection
Protocol: Frozen slides were directly exposed to a BAS storage phosphor screen film (BAS-IP-MS-2025) in an imaging cassette (Fuji Photo Film Co., Tokyo, Japan) for 12 h at -80° C. under the dark. The distribution of radioactivity was visualized by a Fuji Bio-Imaging Analyzer FLA-7000 (Fuji Photo Film Co., Tokyo, Japan). […] E. Toman, S. Spiegel, Lysophospholipid receptors in the nervous system, Neurochem. Res. 27 (2002) 619-627; […]. Tanaka, J. Aoki, H. Arai, S. Noji, Expression patterns of the lysophospholipid receptor genes during mouse early development, Dev. Dyn. […] Cytochem. 58 (2010) 847-856).

Sequence of S1P1 (Rattus norvegicus (Rat), UniProt P48303) (P48303 whole entry): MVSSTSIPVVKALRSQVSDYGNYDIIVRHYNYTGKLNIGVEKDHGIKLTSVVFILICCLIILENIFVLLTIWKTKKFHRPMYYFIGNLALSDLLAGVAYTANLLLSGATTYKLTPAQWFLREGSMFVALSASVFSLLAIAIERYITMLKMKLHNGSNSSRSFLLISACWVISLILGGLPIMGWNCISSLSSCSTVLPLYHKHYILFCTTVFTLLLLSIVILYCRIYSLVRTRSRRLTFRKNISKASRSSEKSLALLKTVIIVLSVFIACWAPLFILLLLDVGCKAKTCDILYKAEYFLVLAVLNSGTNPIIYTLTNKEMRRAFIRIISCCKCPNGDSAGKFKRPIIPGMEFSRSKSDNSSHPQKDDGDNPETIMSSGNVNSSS
Sequence of S1P1 (Mus musculus (Mouse), UniProt O08530) (O08530 whole entry): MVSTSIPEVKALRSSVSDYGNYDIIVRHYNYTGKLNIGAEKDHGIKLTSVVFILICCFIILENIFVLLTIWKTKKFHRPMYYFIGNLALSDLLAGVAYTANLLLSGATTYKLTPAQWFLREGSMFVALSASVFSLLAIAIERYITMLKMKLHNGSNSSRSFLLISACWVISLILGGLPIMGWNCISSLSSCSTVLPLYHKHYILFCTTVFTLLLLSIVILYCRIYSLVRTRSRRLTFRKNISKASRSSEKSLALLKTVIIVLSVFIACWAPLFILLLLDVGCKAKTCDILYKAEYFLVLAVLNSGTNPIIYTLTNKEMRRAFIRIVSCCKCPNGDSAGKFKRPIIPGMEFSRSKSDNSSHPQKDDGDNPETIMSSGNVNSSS

OCc1cn(Cc2ccc(-c3noc(-c4ccc(OCC[18F])c(C(F)(F)F)c4)n3)cc2)nn1 [[^18F]22b]
Reduction of tracer uptake by SEW2871 blocking (S1P1 [1]): ~36% | Tissue uptake, Blood ([2]; 5 min p.i., n = 4): 0.49 % ID/g and 0.49 ± 0.07 % ID/g | Tissue uptake, Blood ([2]; 30 min p.i., n = 4): 0.42 ± 0.05 % ID/g | Tissue uptake, Blood ([2]; 60 min p.i., n = 4): 0.36 ± 0.02 % ID/g | Tissue uptake, Blood ([2]; 120 min p.i., n = 4): 0.35 ± 0.01 % ID/g | Tissue uptake, Bone ([2]; 5 min p.i., n = 4): 0.55 % ID/g and 0.55 ± 0.05 % ID/g | Tissue uptake, Bone ([2]; 30 min p.i., n = 4): 0.45 ± 0.03 % ID/g | Tissue uptake, Bone ([2]; 60 min p.i., n = 4): 0.45 ± 0.01 % ID/g | Tissue uptake, Bone ([2]; 120 min p.i., n = 4): 0.51 ± 0.05 % ID/g | Tissue uptake, Brain ([2]; 5 min p.i., n = 4): 0.49 % ID/g and 0.49 ± 0.04 % ID/g | Tissue uptake, Brain ([2]; 30 min p.i., n = 4): 0.57 % ID/g and 0.57 ± 0.02 % ID/g | Tissue uptake, Brain ([2]; 60 min p.i., n = 4): 0.71 % ID/g and 0.71 ± 0.03 % ID/g | Tissue uptake, Brain ([2]; 60 min p.i., n = 4, listed as 18F-TZ43113): 0.71 % ID/g | Tissue uptake, Brain ([2]; 120 min p.i., n = 4): 0.61 % ID/g and 0.61 ± 0.05 % ID/g | Tissue uptake, Fat ([2]; 5 min p.i., n = 4): 0.51 % ID/g and 0.51 ± 0.22 % ID/g | Tissue uptake, Fat ([2]; 30 min p.i., n = 4): 0.62 ± 0.10 % ID/g | Tissue uptake, Fat ([2]; 60 min p.i., n = 4): 0.69 ± 0.07 % ID/g | Tissue uptake, Fat ([2]; 120 min p.i., n = 4): 0.57 ± 0.07 % ID/g | Tissue uptake, Heart ([2]; 5 min p.i., n = 4): 1.65 % ID/g and 1.65 ± 0.27 % ID/g | Tissue uptake, Heart ([2]; 30 min p.i., n = 4): 1.19 % ID/g and 1.19 ± 0.06 % ID/g | Tissue uptake, Heart ([2]; 60 min p.i., n = 4): 1.05 ± 0.08 % ID/g | Tissue uptake, Heart ([2]; 120 min p.i., n = 4): 0.94 ± 0.06 % ID/g | Tissue uptake, Kidney ([2]; 5 min p.i., n = 4): 3.43 % ID/g and 3.43 ± 0.31 % ID/g | Tissue uptake, Kidney ([2]; 30 min p.i., n = 4): 2.11 % ID/g and 2.11 ± 0.08 % ID/g | Tissue uptake, Kidney ([2]; 60 min p.i., n = 4): 1.91 ± 0.10 % ID/g | Tissue uptake, Kidney ([2]; 120 min p.i., n = 4): 1.62 ± 0.09 % ID/g | Tissue uptake, Liver ([2]; 5 min p.i., n = 4): 5.69 % ID/g and 5.69 ± 0.60 % ID/g | Tissue uptake, Liver ([2]; 30 min p.i., n = 4): 4.30 % ID/g and 4.30 ± 0.37 % ID/g | Tissue uptake, Liver ([2]; 60 min p.i., n = 4): 4.21 ± 0.21 % ID/g | Tissue uptake, Liver ([2]; 120 min p.i., n = 4): 3.66 ± 0.14 % ID/g | Tissue uptake, Lung ([2]; 5 min p.i., n = 4): 2.79 % ID/g and 2.79 ± 0.57 % ID/g | Tissue uptake, Lung ([2]; 30 min p.i., n = 4): 1.96 % ID/g and 1.96 ± 0.07 % ID/g | Tissue uptake, Lung ([2]; 60 min p.i., n = 4): 1.67 ± 0.09 % ID/g | Tissue uptake, Lung ([2]; 120 min p.i., n = 4): 1.54 ± 0.07 % ID/g | Tissue uptake, Muscle ([2]; 5 min p.i., n = 4): 0.39 % ID/g and 0.39 ± 0.04 % ID/g | Tissue uptake, Muscle ([2]; 30 min p.i., n = 4): 0.59 ± 0.05 % ID/g | Tissue uptake, Muscle ([2]; 60 min p.i., n = 4): 0.51 ± 0.02 % ID/g | Tissue uptake, Muscle ([2]; 120 min p.i., n = 4): 0.47 ± 0.02 % ID/g | Tissue uptake, Pancreas ([2]; 5 min p.i., n = 4): 1.96 % ID/g and 1.96 ± 0.56 % ID/g | Tissue uptake, Pancreas ([2]; 30 min p.i., n = 4): 1.89 ± 0.16 % ID/g | Tissue uptake, Pancreas ([2]; 60 min p.i., n = 4): 1.52 ± 0.25 % ID/g | Tissue uptake, Pancreas ([2]; 120 min p.i., n = 4): 1.45 ± 0.15 % ID/g | Tissue uptake, Spleen ([2]; 5 min p.i., n = 4): 2.22 % ID/g and 2.22 ± 0.23 % ID/g | Tissue uptake, Spleen ([2]; 30 min p.i., n = 4): 1.36 % ID/g and 1.36 ± 0.04 % ID/g | Tissue uptake, Spleen ([2]; 60 min p.i., n = 4): 1.27 ± 0.08 % ID/g | Tissue uptake, Spleen ([2]; 120 min p.i., n = 4): 1.14 ± 0.10 % ID/g | Tissue uptake, Thymus ([2]; 5 min p.i., n = 4): 0.69 % ID/g and 0.69 ± 0.08 % ID/g | Tissue uptake, Thymus ([2]; 30 min p.i., n = 4): 0.83 ± 0.07 % ID/g | Tissue uptake, Thymus ([2]; 60 min p.i., n = 4): 0.82 ± 0.04 % ID/g | Tissue uptake, Thymus ([2]; 120 min p.i., n = 4): 0.78 ± 0.05 % ID/g | Defluorination in vivo (bone uptake 5 to 120 min) ([2]; bone radioactivity unchanged): no defluorination in vivo | Regional brain uptake, brain stem ([2]; brain stem, 5 min p.i.): 0.50 ID %/g | Regional brain uptake, cerebellum ([2]; cerebellum, 5 min p.i.): 0.53 ID %/g | Regional brain uptake, cortex ([2]; cortex, 5 min p.i.): 0.59 ID %/g | Regional brain uptake, hippocampus ([2]; hippocampus, 5 min p.i.): 0.43 ID %/g | Time of maximum brain uptake ([2]; post injection): 60 min | Regional brain uptake, striatum ([2]; striatum, 5 min p.i.): 0.47 ID %/g | Regional brain uptake, thalamus ([2]; thalamus, 5 min p.i.): 0.46 ID %/g | Visualization of rat lumbar spinal cord by microPET (S1P1 [3]; EAE and sham rats): not high enough for clear visualization | Tracer uptake in lumbar spinal cord, EAE (S1P1 [3]; EAE rats, summed % ID/g value, 10-60 min post injection, n=4): 0.47±0.05 % ID/g | Increase of tracer uptake in EAE rat lumbar spinal cord compared with shams (S1P1 [3]; microPET, 10-60 min post injection, listed as 18F-TZ43113): ~37% and 36.7% | Tracer uptake in sham rat spinal cord (TAC) (S1P1 [3]; sham rats, 10-60 min post injection): approximately 0.35 % ID/g | Tracer uptake in lumbar spinal cord, sham (S1P1 [3]; sham rats, summed % ID/g value, 10-60 min post injection, n=4): 0.34±0.05 % ID/g | Blood-brain barrier crossing, rat brain [4]: able to cross the BBB
